Data: ChEMBL document CHEMBL5678818, “Discovery of potent SOS1 inhibitors that block RAS activation via disruption of the RAS-SOS1 interaction” (Proc Natl Acad Sci U S A, 2019)

Assays:
[1] = biological target: T1, Serine/threonine-protein kinase ULK2 (Homo sapiens) (UniProt Q8IYT8); experiment: Inhibition of ULK2 (unknown origin) assessed as residual activity at 1000 nM by KINOMEscan analysis relative to control
T1 sequence (whole entry): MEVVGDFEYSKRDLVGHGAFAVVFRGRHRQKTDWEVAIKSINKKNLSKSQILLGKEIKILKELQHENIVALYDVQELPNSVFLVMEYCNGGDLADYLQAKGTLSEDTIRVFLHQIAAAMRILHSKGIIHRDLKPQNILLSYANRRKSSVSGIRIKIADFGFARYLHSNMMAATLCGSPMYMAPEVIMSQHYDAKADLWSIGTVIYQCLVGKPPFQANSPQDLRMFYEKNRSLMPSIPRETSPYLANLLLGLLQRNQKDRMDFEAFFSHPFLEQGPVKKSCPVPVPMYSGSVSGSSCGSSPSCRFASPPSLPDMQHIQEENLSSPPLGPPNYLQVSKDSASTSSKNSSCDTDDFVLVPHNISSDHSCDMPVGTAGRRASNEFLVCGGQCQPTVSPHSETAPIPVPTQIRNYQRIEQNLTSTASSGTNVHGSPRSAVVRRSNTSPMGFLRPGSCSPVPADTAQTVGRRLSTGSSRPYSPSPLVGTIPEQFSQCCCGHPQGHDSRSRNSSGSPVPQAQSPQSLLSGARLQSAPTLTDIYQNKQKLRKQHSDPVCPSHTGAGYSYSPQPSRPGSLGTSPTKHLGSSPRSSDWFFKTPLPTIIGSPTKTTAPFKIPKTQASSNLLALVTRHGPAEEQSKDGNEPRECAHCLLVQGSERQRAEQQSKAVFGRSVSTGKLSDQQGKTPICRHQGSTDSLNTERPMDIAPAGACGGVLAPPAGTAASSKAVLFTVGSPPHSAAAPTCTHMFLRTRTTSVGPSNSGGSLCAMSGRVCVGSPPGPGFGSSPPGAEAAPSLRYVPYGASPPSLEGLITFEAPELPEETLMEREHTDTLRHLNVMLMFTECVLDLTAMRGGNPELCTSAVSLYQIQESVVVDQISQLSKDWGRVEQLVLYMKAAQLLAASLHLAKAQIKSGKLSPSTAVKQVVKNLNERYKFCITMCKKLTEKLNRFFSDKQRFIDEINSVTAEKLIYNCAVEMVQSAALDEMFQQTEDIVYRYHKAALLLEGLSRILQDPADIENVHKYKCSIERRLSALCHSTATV

[2] = biological target: T2, Phosphorylase b kinase gamma catalytic chain, liver/testis isoform (Homo sapiens) (UniProt P15735); experiment: Inhibition of PHKG2 (unknown origin) assessed as residual activity at 1000 nM by KINOMEscan analysis relative to control
T2 sequence (whole entry): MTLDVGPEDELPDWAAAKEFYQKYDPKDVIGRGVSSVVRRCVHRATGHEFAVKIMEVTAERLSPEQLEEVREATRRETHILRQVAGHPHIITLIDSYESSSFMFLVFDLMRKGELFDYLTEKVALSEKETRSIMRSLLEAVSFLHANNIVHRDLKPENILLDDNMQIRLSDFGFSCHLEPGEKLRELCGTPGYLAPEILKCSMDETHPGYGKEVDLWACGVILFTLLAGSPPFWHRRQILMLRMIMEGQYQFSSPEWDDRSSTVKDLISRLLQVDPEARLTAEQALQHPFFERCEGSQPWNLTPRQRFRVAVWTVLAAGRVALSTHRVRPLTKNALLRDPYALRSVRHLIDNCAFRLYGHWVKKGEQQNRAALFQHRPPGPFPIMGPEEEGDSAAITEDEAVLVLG

[3] = system: Phosphatidylinositol 4,5-bisphosphate 3-kinase catalytic subunit alpha isoform (Homo sapiens), P42336 [M1043I]; experiment: Inhibition of PIK3CA M1043I mutant (unknown origin) assessed as residual activity at 1000 nM by KINOMEscan analysis relative to control
Sequence of Phosphatidylinositol 4,5-bisphosphate 3-kinase catalytic subunit alpha isoform (Homo sapiens), P42336 [M1043I] (P42336 whole entry M1043I, canonical isoform): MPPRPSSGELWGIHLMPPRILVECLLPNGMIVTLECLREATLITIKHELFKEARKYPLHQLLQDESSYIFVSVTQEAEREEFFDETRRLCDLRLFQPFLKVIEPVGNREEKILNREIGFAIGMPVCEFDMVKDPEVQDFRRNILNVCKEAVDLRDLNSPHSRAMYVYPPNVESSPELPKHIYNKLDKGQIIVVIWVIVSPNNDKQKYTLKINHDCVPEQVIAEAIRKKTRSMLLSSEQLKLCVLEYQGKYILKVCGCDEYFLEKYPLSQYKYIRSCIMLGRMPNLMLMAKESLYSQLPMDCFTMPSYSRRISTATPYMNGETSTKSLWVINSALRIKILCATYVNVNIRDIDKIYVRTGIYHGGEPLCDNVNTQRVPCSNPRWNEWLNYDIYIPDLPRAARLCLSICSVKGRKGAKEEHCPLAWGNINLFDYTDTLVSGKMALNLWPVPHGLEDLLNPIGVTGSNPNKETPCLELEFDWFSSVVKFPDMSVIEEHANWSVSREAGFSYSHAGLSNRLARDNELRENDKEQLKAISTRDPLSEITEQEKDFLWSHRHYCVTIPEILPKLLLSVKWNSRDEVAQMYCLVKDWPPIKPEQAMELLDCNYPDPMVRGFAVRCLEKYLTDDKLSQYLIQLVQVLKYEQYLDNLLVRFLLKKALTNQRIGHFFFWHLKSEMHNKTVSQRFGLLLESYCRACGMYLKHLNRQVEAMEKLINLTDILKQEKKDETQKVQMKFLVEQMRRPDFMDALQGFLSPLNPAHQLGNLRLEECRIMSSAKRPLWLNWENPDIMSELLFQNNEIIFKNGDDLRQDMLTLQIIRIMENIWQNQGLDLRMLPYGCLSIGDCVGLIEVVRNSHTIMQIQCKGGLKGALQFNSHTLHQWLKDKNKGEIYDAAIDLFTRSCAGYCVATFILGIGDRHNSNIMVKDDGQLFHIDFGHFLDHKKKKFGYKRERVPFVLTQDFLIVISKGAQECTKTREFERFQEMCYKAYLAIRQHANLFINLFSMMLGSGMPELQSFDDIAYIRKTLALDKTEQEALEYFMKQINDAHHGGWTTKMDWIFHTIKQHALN

[4] = biological target: Wee1-like protein kinase (Homo sapiens) (UniProt P30291); experiment: Inhibition of WEE1 (unknown origin) assessed as residual activity at 1000 nM by KINOMEscan analysis relative to control
Sequence of Wee1-like protein kinase (Homo sapiens) (P30291 whole entry, looked up): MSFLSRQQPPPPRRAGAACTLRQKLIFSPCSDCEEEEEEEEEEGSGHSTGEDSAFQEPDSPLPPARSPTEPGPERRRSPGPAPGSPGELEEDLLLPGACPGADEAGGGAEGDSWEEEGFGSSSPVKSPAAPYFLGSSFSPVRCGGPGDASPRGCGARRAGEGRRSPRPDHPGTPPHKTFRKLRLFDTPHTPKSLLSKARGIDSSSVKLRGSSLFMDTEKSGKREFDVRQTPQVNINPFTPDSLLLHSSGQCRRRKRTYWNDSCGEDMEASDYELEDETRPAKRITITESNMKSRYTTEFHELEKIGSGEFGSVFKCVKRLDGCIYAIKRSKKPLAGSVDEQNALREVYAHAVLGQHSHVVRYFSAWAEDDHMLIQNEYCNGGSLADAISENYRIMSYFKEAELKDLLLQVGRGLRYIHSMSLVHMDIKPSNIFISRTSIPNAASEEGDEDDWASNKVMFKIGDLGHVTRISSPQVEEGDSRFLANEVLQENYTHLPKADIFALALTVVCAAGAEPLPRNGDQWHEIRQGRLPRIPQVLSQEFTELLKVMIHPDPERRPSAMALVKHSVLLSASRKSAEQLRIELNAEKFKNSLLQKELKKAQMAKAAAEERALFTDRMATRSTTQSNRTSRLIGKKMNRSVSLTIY

[5] = biological target: Proto-oncogene tyrosine-protein kinase Src (Homo sapiens) (UniProt P12931); experiment: Inhibition of SRC (unknown origin) assessed as residual activity at 1000 nM by KINOMEscan analysis relative to control
Sequence of Proto-oncogene tyrosine-protein kinase Src (Homo sapiens) (P12931 2-536 limits assumed): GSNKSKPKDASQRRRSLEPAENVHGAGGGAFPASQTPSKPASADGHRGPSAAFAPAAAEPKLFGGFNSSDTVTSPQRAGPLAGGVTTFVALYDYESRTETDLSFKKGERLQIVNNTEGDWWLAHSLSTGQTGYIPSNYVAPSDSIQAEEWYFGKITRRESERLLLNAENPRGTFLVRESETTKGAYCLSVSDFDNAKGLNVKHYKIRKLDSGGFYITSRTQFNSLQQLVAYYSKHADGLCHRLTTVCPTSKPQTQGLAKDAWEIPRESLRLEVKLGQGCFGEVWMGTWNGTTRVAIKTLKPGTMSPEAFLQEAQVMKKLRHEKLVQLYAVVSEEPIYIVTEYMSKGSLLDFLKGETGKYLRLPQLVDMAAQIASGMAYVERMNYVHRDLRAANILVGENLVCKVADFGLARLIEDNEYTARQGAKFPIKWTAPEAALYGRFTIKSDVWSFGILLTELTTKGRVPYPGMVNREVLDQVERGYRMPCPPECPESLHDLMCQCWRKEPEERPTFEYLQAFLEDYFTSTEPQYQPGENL

SMILES	Activity [1] [%]	Activity [2] [%]	Activity [3] [%]	Activity [4] [%]	Activity [5] [%]
COc1cc2nc(C)nc(N[C@H](C)c3cccc(-c4cn[nH]c4)c3)c2cc1OC	60	59	100	84	97
COc1cc2ncnc(N[C@H](C)c3cccc4ccccc34)c2cc1OC	92	100	92	100	96
